Source: publication PMC11266212, “Effect of Clarithromycin, a Strong CYP3A and P-glycoprotein Inhibitor, on the Pharmacokinetics of Edoxaban in Healthy Volunteers and the Evaluation of the Drug Interaction with Other Oral Factor Xa Inhibitors by a Microdose Cocktail Approach” (Cardiovascular Drugs and Therapy, 2023)
Read-outs that look alike come from different tables or passages of the source.

Assays:
[1] = tested on: coagulation markers (aPTT, INR); assay: Coagulation effects (aPTT, INR) 3 h post dose; type: in vivo, human (healthy volunteers); conditions: for INR, mean / aPTT, mean: 180 min after administration
Method: (§1) Venous plasma samples for pharmacokinetic FXaI analyses were collected before and 0.25, 0.5, 0.75, 1, 1.5, 2, 2.5, 3, 3.5, 4, 5, 6, 8, 10, 12, 24 (last sampling after microdoses), and 48 h (last sampling for edoxaban 60 mg) after drug administration. Midazolam pharmacokinetics were assessed using a limited sampling strategy with sampling at 2, 2.5, 3, and 4 h post dose. All samples were processed within 20 min, and plasma was stored at ≤ – 20 °C until analysis. Coagulation effects (international normalized ratio (INR) and activated partial thromboplastin time (aPTT)) were assessed at expected FXaI peak plasma concentrations (3 h post dose) in the accredited central laboratory of the hospital.

[2] = Pharmacokinetics of a single 60 mg edoxaban dose before and during clarithromycin; conditions: for Tmax / Vd: geometric mean; for Vd: Vz
Method: (§2) The study was an open-label, two-period, one-sequence DDI trial in healthy volunteers to assess the impact of clarithromycin on the pharmacokinetics of 60 mg edoxaban, given as a tablet, and the effect of clarithromycin on apixaban (25 μg), edoxaban (50 μg), and rivaroxaban (25 μg) administered as an oral microdose cocktail. Concurrently, the effect of clarithromycin on CYP3A activity was quantified by means of an oral midazolam microdose (30 μg) (Fig. 1).
(§3) CYP3A4 activity was quantified using a microdose of midazolam administered as an oral solution, which was administered directly before administering the FXaI [19, 20]. Clarithromycin was dosed to inhibition steady-state (7-day treatment prior to evaluation of any perpetrator effects and treatment continued until last blood sampling) and administered at a dose of 500 mg b.i.d. to ensure reliable inhibition of hepatic CYP3A4 (mechanism-based inhibition), while maximum CYP3A4 inhibition in the gut wall was expected to occur earlier. Single-dose pharmacokinetics of the FXaI were assessed at baseline and on day 8 (microdosed FXaI cocktail) and day 9 (edoxaban 60 mg) of clarithromycin treatment.
as §1
(§4) Apixaban, edoxaban, midazolam, and rivaroxaban plasma concentrations were quantified using validated highly sensitive ultra-performance liquid chromatography–tandem mass spectrometry (UPLC-MS/MS) methods with accuracy and precision values of less than or equal to ± 15 % [22, 23]. The corresponding lower limits of quantification were 1 pg/ml for microdosed midazolam, 2.5 pg/ml for all microdosed FXaI, and 1 ng/ml for regular doses of edoxaban.
(§5) Non-compartmental analyses of the FXaI and midazolam pharmacokinetics were performed using Phoenix WinNonlin 8.3 (Certara, Inc., Princeton, NJ, USA). Linear modelling of AUC ratios was done using the R software environment in version 4.0.4 (R Foundation for Statistical Computing, Vienna, Austria). Maximum plasma concentration (Cmax) and the time to reach Cmax (Tmax) were directly obtained from the pharmacokinetic data. The area under the concentration-time curve from 0 to infinity (AUC0-∞) was determined using the log-linear trapezoidal rule and by adding the extrapolated part until infinity. Half-life (t1/2) is calculated as ln(2)/λz , where the elimination rate constant λz was estimated using log-linear regression of the elimination phase. The apparent oral clearance (Cl/F) was calculated as dose/AUC0--∞ . CYP3A4 activity was determined using a limited sampling strategy using the midazolam AUC2-4 as described earlier. […] Exposure changes are described by evaluating the geometric mean ratio (paired t-test on log-transformed values) of AUC0-∞ and Cmax at baseline and under the influence of steady-state clarithromycin (90 % CI). The AUC2-4 of midazolam was evaluated at multiple time points using a repeated-measures analysis of variance after logarithmic transformation.

[3] = Pharmacokinetics of a microdosed FXaI cocktail before and during clarithromycin; conditions: for GMR of dose-normalized AUC0-∞, microdose vs therapeutic dose: edoxaban 50 μg vs 60 mg; for AUC: AUC0-∝
Method: as §2, §3, §1, §4, §5

[4] = tested on: CYP; conditions: cited from earlier work
[5] = cited from earlier work
[6] = tested on: P-gp; design: method as in PMID 12848773, PMID 18987624; conditions: digoxin given intravenously and orally; cited from earlier work
[7] = design: method as in PMID 32511684; conditions: during clarithromycin compared to azithromycin, patients mainly anticoagulated with FXaI; cited from earlier work
[8] = Safety: adverse events in the trial; type: in vivo, human (healthy volunteers); conditions: while taking clarithromycin 500 mg b.i.d.; 12 participants
[9] = tested on: CYP3A; assay: CYP3A activity by oral midazolam microdose (AUC2-4, limited sampling); type: in vivo, human (healthy volunteers); conditions: human, plasma, 30 ug, oral microdose 30 μg
Method: as §2
CYP3A4 activity was quantified using a microdose of midazolam administered as an oral solution, which was administered directly before administering the FXaI [19, 20]. […] Single-dose pharmacokinetics of the FXaI were assessed at baseline and on day 8 (microdosed FXaI cocktail) and day 9 (edoxaban 60 mg) of clarithromycin treatment.
as §1, with “All samples were processed within 20 min, and plasma was stored at ≤ – 20 °C until analysis.” left out, “hospital. […]” for “hospital.”

[10] = cited from earlier work; remark: listed apart in the source
[11] = edoxaban 60 mg with clarithromycin
[12] = edoxaban 60 mg, clarithromycin steady state vs baseline
[13] = human, in vivo, 60 mg, edoxaban 60 mg, at clarithromycin steady-state
[14] = human, in vivo, 60 mg, edoxaban 60 mg, baseline
[15] = oral microdose cocktail, at clarithromycin steady-state
[16] = oral microdose cocktail, baseline
[17] = oral microdose cocktail, clarithromycin steady state vs baseline
[18] = human, in vivo, po, geometric mean
[19] = regular apixaban dose with clarithromycin, ref 24 (Garonzik et al. 2019)
[20] = regular rivaroxaban dose with clarithromycin, ref 16 (Mueck et al. 2013)

With CN1CCc2nc(C(=O)N[C@@H]3C[C@@H](C(=O)N(C)C)CC[C@@H]3NC(=O)C(=O)Nc3ccc(Cl)cn3)sc2C1 [Edoxaban, edoxaban] the “INR, change during clarithromycin, GMR” value ([1]; edoxaban 60 mg) was 1.39, the “INR, mean” value ([1]; edoxaban 60 mg alone) was 1.23 and the “aPTT, mean” value ([1]; edoxaban 60 mg alone) was 33.4. For the same compound, the “INR, mean” value [1, 11] was 1.43, the “aPTT, mean” value [1, 11] was 40.2 and the “increase of edoxaban exposure by clarithromycin” value ([2]; edoxaban 60 mg) was 53%. For the same compound, the “Cl / F, geometric mean” value ([2]; edoxaban 60 mg, at clarithromycin steady-state) was 34 L/h, the “Cmax, geometric mean” value ([2]; edoxaban 60 mg, at steady-state clarithromycin) was 258 ng/mL and the “Cl / F, geometric mean” value ([2]; edoxaban 60 mg, baseline) was 51 L/h. For the same compound, the “AUC0-∝ geometric mean ratio” value [2, 12] was 1.53, the “Cmax geometric mean ratio” value [2, 12] was 1.27 and the Cmax ([2]; human, in vivo, 60 mg) was 203 ng/mL. It also gave a Tmax [2, 13] of 1.67 h, a Tmax [2, 14] of 1.27 h and a Vd [2, 13] of 361 L. For the same compound, the Vd [2, 14] was 594 L, the AUC ([2]; human, in vivo, po, 60 mg) was 1170 ng·h/mL and the “GMR of dose-normalized AUC0-∞, microdose vs therapeutic dose” value ([3]; at baseline) was 1.08. The “GMR of dose-normalized AUC0-∞, microdose vs therapeutic dose” value ([3]; at steady-state of clarithromycin) was 1.43, the AUC ([3]; human, in vivo, po, geometric mean, oral microdose cocktail (25 μg apixaban, 50 μg edoxaban, 25 μg rivaroxaban), baseline) was 1.05 ng·h/mL and the AUC ([3]; human, in vivo, po, geometric mean, oral microdose cocktail, at steady-state clarithromycin (day 8)) was 2.13 ng·h/mL. The Cmax ([3]; human, in vivo, po, geometric mean, oral microdose cocktail, at steady-state clarithromycin) was 0.341 ng/mL, the Cmax ([3]; human, in vivo, po, geometric mean, oral microdose cocktail, baseline) was 0.153 ng/mL and the Tmax ([3]; human, in vivo, po, Tmax, geometric mean, oral microdose cocktail, at clarithromycin steady-state) was 1.72 h. For the same compound, the Tmax ([3]; human, in vivo, po, Tmax, geometric mean, oral microdose cocktail, baseline) was 1.17 h, the “Cl / F, geometric mean” value [3, 15] was 23 L/h and the “Vz, geometric mean” value [3, 15] was 217 L. For the same compound, the “Cl / F, geometric mean” value [3, 16] was 48 L/h, the “Vz, geometric mean” value [3, 16] was 399 L and the “AUC0-∝ geometric mean ratio” value [3, 17] was 2.03. For the same compound, the “Cmax geometric mean ratio” value [3, 17] was 2.22, the “contribution of CYP3A to the overall metabolic clearance” value [4] was 1% and the “effect of selective inhibition of CYP3A (by voriconazole) on pharmacokinetics” value [5] was “does not affect its pharmacokinetics”. For the same compound, the “exposure change with ketoconazole” value ([5]; therapeutic dose of edoxaban) was 87%.
In the case of C[C@H]1O[C@@H](O[C@H]2[C@@H](O)C[C@H](O[C@H]3[C@@H](O)C[C@H](O[C@H]4CC[C@@]5(C)[C@H](CC[C@@H]6[C@@H]5C[C@@H](O)[C@]5(C)[C@@H](C7=CC(=O)OC7)CC[C@]65O)C4)O[C@@H]3C)O[C@@H]2C)C[C@H](O)[C@@H]1O [digoxin], the “reduction of renal tubular secretion by oral clarithromycin” value [6] is listed as 15%.
For CC[C@H]1OC(=O)[C@H](C)[C@@H](O[C@H]2C[C@@](C)(OC)[C@@H](O)[C@H](C)O2)[C@H](C)[C@@H](O[C@@H]2O[C@H](C)C[C@H](N(C)C)[C@H]2O)[C@](C)(OC)C[C@@H](C)C(=O)[C@H](C)[C@@H](O)[C@]1(C)O [clarithromycin], the “increase of the risk of hospital admission due to major bleeding events” value [7] is given as 71% and the “adverse event dysgeusia, number of participants” value [8] is given as 9.
In the case of Cc1ncc2n1-c1ccc(Cl)cc1C(c1ccccc1F)=NC2 [Midazolam, midazolam], the AUC ([9]; at clarithromycin steady-state) is reported as 0.672 ng·h/mL and the AUC ([9]; baseline) is reported as 0.107 ng·h/mL.
With COc1ccc(-n2nc(C(N)=O)c3c2C(=O)N(c2ccc(N4CCCCC4=O)cc2)CC3)cc1 [Apixaban, apixaban] the “Cl / F, geometric mean” value ([3]; human, in vivo, po) was 4.9 L/h, the “Vz, geometric mean” value ([3]; human, in vivo, po) was 52 L and the t1/2, geometric mean ([3]; human, in vivo, po) was 7.1 h. For the same compound, the Cmax [3, 18] was 0.653 ng/mL, the “Tmax, geometric mean” value [3, 15] was 2.23 h and the “Tmax, geometric mean” value [3, 16] was 1.9 h. For the same compound, the “increase of concentrations (exposure) by clarithromycin” value ([10]; apixaban) was 60%, the “AUC0-∝ geometric mean ratio” value [10, 19] was 1.60 and the “Cmax geometric mean ratio” value [10, 19] was 1.30. For the same compound, the “CYP contribution to overall clearance” value [4] was 21%, the “exposure increase caused by verapamil or diltiazem” value [5] was “approximately 40%” and the “exposure change with ketoconazole” value ([5]; therapeutic dose of apixaban) was 99%.
In the case of O=C(NC[C@H]1CN(c2ccc(N3CCOCC3=O)cc2)C(=O)O1)c1ccc(Cl)s1 [Rivaroxaban, rivaroxaban], the “Cl / F, geometric mean” value ([3]; human, in vivo, po) is reported as 9.0 L/h, the Tmax ([3]; human, in vivo, po) is reported as 0.917 h and the “Vz, geometric mean” value ([3]; human, in vivo, po) is reported as 85 L. For the same compound, the t1/2, geometric mean ([3]; human, in vivo, po) was 6.3 h, the Cmax [3, 18] was 0.65 ng/mL and the “AUC0-∝ geometric mean ratio” value [10, 20] was 1.54. The “Cmax geometric mean ratio” value [10, 20] was 1.40, the “increase of concentrations (exposure) by clarithromycin” value ([10]; rivaroxaban) was 50–100% and the “magnitude of drug interaction (exposure increase) with clarithromycin” value ([10]; therapeutic doses of rivaroxaban) was 54%. For the same compound, the “CYP contribution to overall clearance” value [4] was 32%, the “exposure increase caused by verapamil or diltiazem” value [5] was “approximately 40%” and the “exposure change with ketoconazole” value ([5]; therapeutic dose of rivaroxaban) was 158%.
